{"source": "the supplement of paper PMC10307832", "test_in_all_cases": "relative viability (nuclei count vs DMSO), 5 days (fraction); higher = more cells survive", "key": {"[1]": {"compound": "COc1cc2c(Oc3ccc4[nH]c(C)cc4c3F)ncnc2cc1OCCCN1CCCC1 [Cediranib] + O=C(CCCCCCC(=O)Nc1ccccc1)NO [Vorinostat] (partner 1 µM)", "procedure,_shortened": "(§1)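 A single step with final 0.05% Triton X-100, 1% formaldehyde and 1 ug/ml Hoechst fixed the cells and stained nuclei 5 days after treatment. Lung cancer cell lines in 1536-well plates had been treated by pin tool the day after seeding with one drug alone or a fixed anchor-drug dose plus five library-drug doses (not always all listed) in √10 steps, and nuclei were counted on 4× images. Relative viability is the ratio of nuclei in treated wells to nuclei in vehicle wells, taken as the median of duplicate plates.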"}, "[2]": {"compound": "COc1cc2c(Oc3ccc4[nH]c(C)cc4c3F)ncnc2cc1OCCCN1CCCC1 [Cediranib] + Nc1nc2[nH]cc(CCc3ccc(C(=O)N[C@@H](CCC(=O)O)C(=O)O)cc3)c2c(=O)[nH]1 [Pemetrexed] (partner 0.2 µM)", "procedure,_shortened": "as §1"}, "[3]": {"compound": "O=C(C[C@H]1NCCC[C@@H]1O)Cn1cnc2cc(Br)c(Cl)cc2c1=O (racemic) [Halofuginone] + C[C@]1(O)C[C@@H](c2nc(-c3ccc4ccc(-c5ccccc5)nc4c3)c3c(N)nccn32)C1 [Linsitinib] (partner 1 µM)", "procedure,_shortened": "as §1"}, "[4]": {"compound": "Nc1ncn([C@H]2C[C@H](O)[C@@H](CO)O2)c(=O)n1 [Decitabine] + Cc1nc(NC(=O)N2CCC[C@H]2C(N)=O)sc1-c1ccnc(C(C)(C)C(F)(F)F)c1 [Alpelisib] (partner 2 µM)", "procedure,_shortened": "as §1"}}, "data": [{"cell line": "UMC-11", "values": [{"measurement": "relative viability", "setting": "[1]; first compound 0.04 µM", "result": 0.396}, {"measurement": "relative viability", "setting": "[1]; first compound 0.1265 µM", "result": 0.256}, {"measurement": "relative viability", "setting": "[1]; first compound 0.4 µM", "result": 0.345}, {"measurement": "relative viability", "setting": "[1]; first compound 1.265 µM", "result": 0.392}, {"measurement": "relative viability", "setting": "[1]; first compound 4 µM", "result": 0.412}, {"measurement": "relative viability", "setting": "[2]; first compound 0.04 µM", "result": 0.848}, {"measurement": "relative viability", "setting": "[2]; first compound 0.1265 µM", "result": 0.752}, {"measurement": "relative viability", "setting": "[2]; first compound 0.4 µM", "result": 0.738}, {"measurement": "relative viability", "setting": "[2]; first compound 1.265 µM", "result": 0.824}, {"measurement": "relative viability", "setting": "[2]; first compound 4 µM", "result": 0.764}, {"measurement": "relative viability", "setting": "[3]; first compound 0.001 µM", "result": 1.09}, {"measurement": "relative viability", "setting": "[3]; first compound 0.003162 µM", "result": 0.99}, {"measurement": "relative viability", "setting": "[3]; first compound 0.01 µM", "result": 1.03}, {"measurement": "relative viability", "setting": "[3]; first compound 0.03162 µM", "result": 0.963}, {"measurement": "relative viability", "setting": "[3]; first compound 0.1 µM", "result": 0.752}, {"measurement": "relative viability", "setting": "[4]; first compound 0.04 µM", "result": 0.848}, {"measurement": "relative viability", "setting": "[4]; first compound 0.1265 µM", "result": 0.535}, {"measurement": "relative viability", "setting": "[4]; first compound 0.4 µM", "result": 0.481}, {"measurement": "relative viability", "setting": "[4]; first compound 1.265 µM", "result": 0.309}, {"measurement": "relative viability", "setting": "[4]; first compound 4 µM", "result": 0.281}]}]}
